# Like-named read-outs stand apart in the source and are kept apart here. Where a SMILES comes first, the peptide text is derived from it. Bridges are numbered along the chain shown (N, C = ends).
# Tests used:
# rat Nav1.4 = target: T1, rat Nav1.4 (Rattus norvegicus, UniProt P15390); test: Whole-cell patch-clamp, WT Nav1.4 in HEK293T cells; type: cell-based
# T1 construct: expressed in transfected cells; host or cells: HEK293T
# Excerpt: (§1) The cDNA genes encoding rat Nav1.4 and human Nav1.7 were subcloned into vectors pRGB4 and pcDNA3.1-mod, respectively. Mutations of rNav1.4 (N655D, Q657E, and N655D/Q657E) and hNav1.7 (D816N, E818Q, and D816N/E818Q) were constructed using the Gene Tailor Site-Directed Mutagenesis system (Invitrogen, Carlsbad, CA, United States), according to the manufacturer’s instructions. Nav1.2–Nav1.7 and mutant plasmids together with eGFP were transiently transfected into HEK293T cells while Nav1.8 together with eGFP was transiently transfected into ND7/23 cells by Lipofectamine 2000 (Invitrogen, Carlsbad, CA, United States). Additionally, plasmids β1- and β2-eGFP encoding the human β1 and β2 subunits, respectively, were co-transfected with those encoding WT Nav1.7 and Nav1.7 mutations in HEK293T cells. Human Nav1.9 was transfected into ND7/23 cells according to a previous report ([Zhou et al., 2017]). HEK293T and ND7/23 cells were grown under standard tissue culture conditions (5% CO2, 37°C) in Dulbecco’s modified Eagle’s medium (DMEM) supplemented with 10% fetal bovine serum (FBS). Cells with green fluorescent protein fluorescence were selected for whole-cell patch-clamp recordings 24 h after transfection.
# Whole-cell patch-clamp recordings were performed at room temperature (20–25°C) using an EPC 10 USB Patch Clamp Amplifier (HEKA, Elektronik, Lambrecht, Germany). Suction pipettes with access resistance of 2.0–3.0 MΩ were made from borosilicate glass capillary tubes (thickness = 0.225 mm) using a two-step vertical microelectrode puller (PC-10; Narishige, Tokyo, Japan). The standard pipet solution contained (in mM): 140 CsCl, 10 NaCl, 1 EGTA, and 10 HEPES (pH 7.4). Bath solution contained (in mM): 140 NaCl, 2 CaCl2, 1 MgCl2, 5 KCl, 20 HEPES (pH 7.4), and 10 glucose. All chemicals were the products of Sigma-Aldrich (St. Louis, MO, United States) and dissolved in water. […] Data was analyzed by software Igo Pro 6.10A (WaveMetrics, Lake Oswego, OR, United States), SigmaPlot 10.0 (Sigma-Aldrich, St. Louis, MO, United States), OriginPro 8 (OriginLab Corp., Northampton, MA, United States), and GraphPad Prism 5 (GraphPad Software, San Diego, CA, United States). […]
# Concentration-response curves were fitted using the following Hill logistic equation: y = fmax − (fmax − fmin)/(1 + (x/IC50)^n), where fmax and fmin, respectively, represent the channel’s maximum and minimum responses to toxins, fmin was set to 0, x represents toxin concentration and n is an empirical Hill coefficient. […] Peak inward currents from steady-state inactivation were normalized by the maximum current amplitude and fit with a Boltzmann equation I = Imin + 1/(1 + exp[Vm − V1/2/k]) where I is the current amplitude measured during the test depolarization, V1/2 is the midpoint of inaction, and k is the slope factor. […]
# Nav1.7 = target: T2, Nav1.7 (Homo sapiens, UniProt Q15858); test: Rate of toxin dissociation from Nav1.7 at depolarizing pulses; type: cell-based; conditions: 1 μM, mean ± SEM, n = 6–11 cells
# T2 construct: expressed in transfected cells; host or cells: HEK293T
# T2 sequence (O60939 30-215): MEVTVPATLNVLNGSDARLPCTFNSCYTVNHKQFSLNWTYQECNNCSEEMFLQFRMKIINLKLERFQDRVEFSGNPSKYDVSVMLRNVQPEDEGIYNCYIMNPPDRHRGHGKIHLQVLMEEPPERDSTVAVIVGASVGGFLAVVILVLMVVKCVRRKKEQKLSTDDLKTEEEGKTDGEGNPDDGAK
# T2 sequence (Q15858 other isoform, or with tags, fused parts or gaps): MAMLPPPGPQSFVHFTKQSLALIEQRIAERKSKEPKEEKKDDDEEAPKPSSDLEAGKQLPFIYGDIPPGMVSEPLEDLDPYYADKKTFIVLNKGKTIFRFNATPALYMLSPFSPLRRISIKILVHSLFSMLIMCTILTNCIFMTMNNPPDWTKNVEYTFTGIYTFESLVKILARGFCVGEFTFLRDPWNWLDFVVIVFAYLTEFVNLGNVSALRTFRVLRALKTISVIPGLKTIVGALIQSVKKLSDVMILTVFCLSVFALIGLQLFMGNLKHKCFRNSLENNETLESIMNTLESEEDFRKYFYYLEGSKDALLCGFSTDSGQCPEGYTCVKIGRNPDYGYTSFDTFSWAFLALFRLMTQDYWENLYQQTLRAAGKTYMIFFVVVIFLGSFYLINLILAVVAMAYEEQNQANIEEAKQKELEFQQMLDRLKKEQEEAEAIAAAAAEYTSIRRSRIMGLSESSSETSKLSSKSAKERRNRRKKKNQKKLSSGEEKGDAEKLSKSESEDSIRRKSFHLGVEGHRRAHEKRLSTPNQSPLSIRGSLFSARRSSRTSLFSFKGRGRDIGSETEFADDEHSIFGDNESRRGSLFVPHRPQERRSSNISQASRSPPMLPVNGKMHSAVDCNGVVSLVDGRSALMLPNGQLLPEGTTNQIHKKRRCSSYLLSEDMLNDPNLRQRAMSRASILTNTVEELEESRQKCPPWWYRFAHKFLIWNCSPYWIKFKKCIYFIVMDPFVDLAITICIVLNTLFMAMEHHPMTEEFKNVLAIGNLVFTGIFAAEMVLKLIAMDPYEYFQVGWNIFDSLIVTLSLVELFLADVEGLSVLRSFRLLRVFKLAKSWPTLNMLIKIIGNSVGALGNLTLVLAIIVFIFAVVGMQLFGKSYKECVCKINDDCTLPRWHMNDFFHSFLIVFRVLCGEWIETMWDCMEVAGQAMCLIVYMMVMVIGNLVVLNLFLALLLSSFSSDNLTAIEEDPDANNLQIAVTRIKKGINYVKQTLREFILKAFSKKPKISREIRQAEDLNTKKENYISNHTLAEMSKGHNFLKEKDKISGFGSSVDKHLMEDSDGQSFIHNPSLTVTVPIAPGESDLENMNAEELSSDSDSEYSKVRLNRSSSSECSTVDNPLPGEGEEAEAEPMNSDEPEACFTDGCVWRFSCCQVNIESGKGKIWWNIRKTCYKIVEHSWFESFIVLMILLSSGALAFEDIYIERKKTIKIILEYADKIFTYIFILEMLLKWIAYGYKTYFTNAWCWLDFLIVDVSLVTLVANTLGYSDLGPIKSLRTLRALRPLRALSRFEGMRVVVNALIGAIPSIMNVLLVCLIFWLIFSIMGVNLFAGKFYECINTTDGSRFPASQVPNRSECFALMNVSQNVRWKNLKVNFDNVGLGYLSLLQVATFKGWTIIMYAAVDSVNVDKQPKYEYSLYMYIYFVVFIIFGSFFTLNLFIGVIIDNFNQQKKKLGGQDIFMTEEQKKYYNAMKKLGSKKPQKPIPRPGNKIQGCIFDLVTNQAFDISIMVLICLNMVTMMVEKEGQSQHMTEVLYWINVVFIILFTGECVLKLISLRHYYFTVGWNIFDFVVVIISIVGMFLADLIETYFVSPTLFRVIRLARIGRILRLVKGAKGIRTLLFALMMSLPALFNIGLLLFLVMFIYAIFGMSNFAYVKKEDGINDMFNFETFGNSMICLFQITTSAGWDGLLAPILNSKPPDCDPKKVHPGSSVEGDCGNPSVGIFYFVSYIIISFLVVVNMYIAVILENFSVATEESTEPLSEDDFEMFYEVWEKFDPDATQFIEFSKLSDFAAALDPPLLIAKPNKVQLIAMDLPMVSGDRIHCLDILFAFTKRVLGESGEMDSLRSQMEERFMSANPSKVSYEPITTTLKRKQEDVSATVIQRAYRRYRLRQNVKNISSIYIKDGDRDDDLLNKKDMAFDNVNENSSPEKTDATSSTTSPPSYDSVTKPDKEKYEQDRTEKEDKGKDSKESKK
# T2 sequence (Q07699 19-218, further chain): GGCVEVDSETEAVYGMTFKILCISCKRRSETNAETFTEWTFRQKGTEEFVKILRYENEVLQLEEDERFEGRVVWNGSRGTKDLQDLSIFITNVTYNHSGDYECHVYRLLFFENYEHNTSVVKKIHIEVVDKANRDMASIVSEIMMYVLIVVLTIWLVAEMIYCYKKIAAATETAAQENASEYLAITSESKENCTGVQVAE
# Excerpt: as §1, with “HEK293T and ND7/23 cells were grown under standard tissue culture conditions (5% CO2, 37°C) in Dulbecco’s modified Eagle’s medium (DMEM) supplemented with 10% fetal bovine serum (FBS).” left out
# (§2) Whole-cell patch-clamp recordings were performed at room temperature (20–25°C) using an EPC 10 USB Patch Clamp Amplifier (HEKA, Elektronik, Lambrecht, Germany). […] Data was analyzed by software Igo Pro 6.10A (WaveMetrics, Lake Oswego, OR, United States), SigmaPlot 10.0 (Sigma-Aldrich, St. Louis, MO, United States), OriginPro 8 (OriginLab Corp., Northampton, MA, United States), and GraphPad Prism 5 (GraphPad Software, San Diego, CA, United States). […]
# Fast inactivation time constants were calculated by fitting current decay traces with a single exponential function using the I–V protocol described above. Recovery from fast-inactivation (repriming) was assessed by using a two-pulse protocol consisting of a depolarizing pulse to −10 mV for 50 ms to inactivate channels, followed by a step to −100 mV of variable duration (1 to 1024 ms) to promote recovery, and 50 ms test pulse to −10 mV to assess availability of channels. […]
# Nav1.7/D816N = target: T3, Nav1.7/D816N (Homo sapiens, UniProt Q15858, D827N); test: Fast inactivation kinetics in Nav1.7/D816N channel; type: cell-based; conditions: 0.2 µM; between -10 mV and +10 mV; n = 7
# T3 construct: expressed in transfected cells; host or cells: HEK293T
# T3 sequence (O60939 30-215): as the sequence (O60939 30-215) above
# T3 sequence (Q07699 19-218, further chain): as the sequence (Q07699 19-218, further chain) above
# T3 sequence (Q15858 other isoform, or with tags, fused parts or gaps D816N): as the sequence (Q15858 other isoform, or with tags, fused parts or gaps) above, with D816N counted along it
# Excerpt: The cDNA genes encoding rat Nav1.4 and human Nav1.7 were subcloned into vectors pRGB4 and pcDNA3.1-mod, respectively. Mutations of rNav1.4 (N655D, Q657E, and N655D/Q657E) and hNav1.7 (D816N, E818Q, and D816N/E818Q) were constructed using the Gene Tailor Site-Directed Mutagenesis system (Invitrogen, Carlsbad, CA, United States), according to the manufacturer’s instructions. Nav1.2–Nav1.7 and mutant plasmids together with eGFP were transiently transfected into HEK293T cells while Nav1.8 together with eGFP was transiently transfected into ND7/23 cells by Lipofectamine 2000 (Invitrogen, Carlsbad, CA, United States). […] Cells with green fluorescent protein fluorescence were selected for whole-cell patch-clamp recordings 24 h after transfection.
# as §2
# Fast inactivation time constants were calculated by fitting current decay traces with a single exponential function using the I–V protocol described above. […]
# [1] = tested on: acetic acid-induced writhing in mice; type: in vivo, ICR mice; conditions: counted 30 min, control 27.3 ± 3.3, mean ± SEM, n = 6–8
# Protocol: The ICR mice (18–22 g) used in this study were purchased from the Experimental Animal Center of SLac-kinda (Changsha, China). The animals were maintained at 20–25°C and freely allowed to standard rodent chow and water ad libitum. Ethical approval for in vivo experiments in animals was approved by the Animal Care and Use Committee (ACUC) at the Hunan Province Animal Management Office (HPAMO).
# The abdominal writhing responses were counted for 30 min continuously.
# T1 sequence (P15390 whole entry): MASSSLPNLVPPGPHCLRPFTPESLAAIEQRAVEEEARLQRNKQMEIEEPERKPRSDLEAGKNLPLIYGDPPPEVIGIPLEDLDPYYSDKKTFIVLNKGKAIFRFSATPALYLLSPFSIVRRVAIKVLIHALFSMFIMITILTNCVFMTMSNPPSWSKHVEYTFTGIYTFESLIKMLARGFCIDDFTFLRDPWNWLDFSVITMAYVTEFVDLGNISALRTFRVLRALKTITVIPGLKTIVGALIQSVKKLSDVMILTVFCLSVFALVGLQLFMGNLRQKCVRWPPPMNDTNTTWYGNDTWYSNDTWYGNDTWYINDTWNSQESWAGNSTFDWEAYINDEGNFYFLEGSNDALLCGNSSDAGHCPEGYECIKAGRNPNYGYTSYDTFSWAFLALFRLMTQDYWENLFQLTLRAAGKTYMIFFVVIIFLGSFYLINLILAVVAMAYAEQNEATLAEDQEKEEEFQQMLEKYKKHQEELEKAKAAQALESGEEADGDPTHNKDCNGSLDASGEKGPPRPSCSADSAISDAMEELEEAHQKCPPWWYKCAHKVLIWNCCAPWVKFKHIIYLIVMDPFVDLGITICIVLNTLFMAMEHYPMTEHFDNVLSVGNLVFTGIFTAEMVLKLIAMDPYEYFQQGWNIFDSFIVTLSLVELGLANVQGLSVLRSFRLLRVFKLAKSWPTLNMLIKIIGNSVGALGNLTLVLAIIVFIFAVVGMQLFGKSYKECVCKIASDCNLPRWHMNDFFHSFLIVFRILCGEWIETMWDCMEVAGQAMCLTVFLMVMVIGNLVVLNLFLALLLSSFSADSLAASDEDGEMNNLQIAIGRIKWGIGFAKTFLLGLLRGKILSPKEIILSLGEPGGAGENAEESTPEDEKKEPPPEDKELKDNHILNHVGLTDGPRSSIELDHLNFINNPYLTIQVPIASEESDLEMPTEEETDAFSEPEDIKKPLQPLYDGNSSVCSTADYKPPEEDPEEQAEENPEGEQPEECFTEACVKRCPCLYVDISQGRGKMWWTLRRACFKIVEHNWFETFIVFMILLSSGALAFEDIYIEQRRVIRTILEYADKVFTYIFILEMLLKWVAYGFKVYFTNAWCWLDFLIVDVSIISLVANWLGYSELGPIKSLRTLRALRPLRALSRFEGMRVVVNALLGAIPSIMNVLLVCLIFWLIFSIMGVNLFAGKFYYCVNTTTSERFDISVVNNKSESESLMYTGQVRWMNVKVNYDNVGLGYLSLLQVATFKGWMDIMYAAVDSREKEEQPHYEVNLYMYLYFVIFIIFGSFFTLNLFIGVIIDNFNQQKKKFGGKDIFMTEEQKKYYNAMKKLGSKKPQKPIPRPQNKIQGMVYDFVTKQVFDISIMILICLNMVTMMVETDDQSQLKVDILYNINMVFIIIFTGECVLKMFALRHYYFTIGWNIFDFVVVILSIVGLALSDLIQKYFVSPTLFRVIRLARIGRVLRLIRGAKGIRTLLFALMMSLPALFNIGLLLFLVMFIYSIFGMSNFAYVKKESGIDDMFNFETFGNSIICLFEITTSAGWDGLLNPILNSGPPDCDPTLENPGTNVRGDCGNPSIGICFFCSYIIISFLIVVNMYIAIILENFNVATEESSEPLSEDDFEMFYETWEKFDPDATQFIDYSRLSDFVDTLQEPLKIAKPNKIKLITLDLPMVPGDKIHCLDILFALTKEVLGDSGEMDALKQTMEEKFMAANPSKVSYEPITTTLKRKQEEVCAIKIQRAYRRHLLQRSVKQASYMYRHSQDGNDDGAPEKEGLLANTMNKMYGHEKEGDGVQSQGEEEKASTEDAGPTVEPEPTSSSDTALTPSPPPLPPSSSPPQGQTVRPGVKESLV
structure (smiles),measurement,setting,value
"CC(C)C[C@H](NC(=O)[C@H](CC(=O)O)NC(=O)[C@H](Cc1ccc(O)cc1)NC(=O)[C@H](CCCCN)NC(=O)[C@@H]1CSSC[C@@H]2NC(=O)[C@H](CCCCN)NC(=O)[C@H](CC(=O)O)NC(=O)[C@H](CC(N)=O)NC(=O)[C@H](CO)NC(=O)[C@@H]3CCCN3C(=O)[C@H](CC(N)=O)NC(=O)[C@@H]3CSSC[C@H](NC(=O)[C@H](C(C)C)NC(=O)[C@H](CC(C)C)NC(=O)[C@H](CO)NC(=O)[C@H](CO)NC(=O)[C@H](CO)NC(=O)[C@H](CCCCN)NC(=O)[C@H](CSSC[C@H](NC(=O)[C@H](C)N)C(=O)N[C@@H](CC(C)C)C(=O)NCC(=O)N[C@@H](Cc4ccccc4)C(=O)NCC(=O)N[C@@H](CCC(=O)O)C(=O)N[C@@H](CCCCN)C(=O)N3)NC2=O)C(=O)N[C@@H](CO)C(=O)N[C@@H](CCC(N)=O)C(=O)N[C@@H](CCCCN)C(=O)N[C@@H](Cc2c[nH]cn2)C(=O)N[C@@H](CCCCN)C(=O)N[C@@H](Cc2c[nH]c3ccccc23)C(=O)N1)C(=O)O [Ca2a] (H-ACLGFGEKCNPSNDKCCKSSSLVCSQKHKWCKYDL-OH; disulfide 2-17, 9-24, 16-31 (inferred); N-terminus and C-terminus assumed)",inhibitory effect on WT Nav1.4,"rat Nav1.4; 1 μM, HEK293T, n = 4–5 cells",no inhibitory effect
same,selectivity for Nav1.7 against Nav1.4,rat Nav1.4; skeletal isoform Nav1.4 vs Nav1.7,more than 100 fold
same,IC50,"rat Nav1.4; skeletal muscle isoform, whole-cell patch-clamp, HEK293T",> 10 µM
same,inhibitory effect on Nav1.4 currents,"rat Nav1.4; up to 10 μM, HEK293T",no inhibitory effects
same,dissociation time constant from Nav1.7,Nav1.7; at 60 mV,547.2 ± 24.3 ms
same,dissociation time constant from Nav1.7,Nav1.7; at 80 mV,347.9 ± 29.2 ms
same,dissociation time constant from Nav1.7,Nav1.7; at 100 mV,169.8 ± 25.6 ms
same,inactivation time constant of Nav1.7/D816N,Nav1.7/D816N,did not alter inactivation time constant
same,writhing numbers,[1]; 50 μg/kg i.p. 15 min prior to 0.8% acetic acid,15.8 ± 2.4
same,writhing numbers,[1]; 100 μg/kg i.p. 15 min prior to 0.8% acetic acid,10.5 ± 2.8
same,writhing numbers,[1]; 200 μg/kg i.p. 15 min prior to 0.8% acetic acid,5.4 ± 2.2
